The nature of the series: Phase solubility study with cyclodextrins (β-CDs, HP-β-CDs) in galega water, spectrophotometric titration. It is filed as physicochemical. On the procedure: The inventors performed solubility studies in an aqueous media in the absence and presence of solvents and in the presence of increasing concentrations of different types of CDs (β-CDs and HP-β-CDs).
According to the traditional interpretation, this study was carried out using the solubility method.
On the other hand, further sea buckthorn oil solubilization tests were performed with galega water solutions containing 80 mM HP-β-cyclodextrin and another solution with 10 mM β-cyclodextrin.

Results on one compound are retold here after patent EP4609848A1 (I-D Actives, S.L., priority 2024, dated 2025).

The solubility (thermodynamic) is the concentration in solution at equilibrium with solid.

Values after ≈ are worked out from the molar mass of the structure shown.

On to `Oc1ccc(C=Cc2cc(O)cc(O)c2)cc1` [Resveratrol, resveratrol], for which the thermodynamic solubility at 60 min (25 °C, water, thermodynamic from solid) was 40 µg/mL (≈ 175 µM). Besides, the solubility of resveratrol (in absence of CDs, galega water) is 25 µg/mL.
